Assay [1] is described as follows: HEK293 cell viability loss – dry powder samples, cytotoxicity control, dose response (AID 1053191). The following applies: HEK293T viability, ATP luminescence, 72 h; at 50 µM (top of the series).
Assay [2] relates to HEK293T viability, ATP luminescence, 72 h. Described as above.

Results filed as inconclusive are left out. The source made the active and inactive calls.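 Rule for the calls: active = compounds whose fitted half-maximal potency for killing cells lies within twice their highest tested dose; inconclusive = flat curve with 30 to 70% signal loss, or poor fit; inactive = the rest.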

In the case of `Cc1cc(C)c(S(=O)(=O)NCCn2c(C)cc3ccccc32)c(C)c1`, the activity change, negative = cytotoxic in assay [1] was -16.1% (inactive).

As to `Cc1cccc(NC(=O)NCc2ccc3c(c2)cc(C)n3C)c1`, in assay [1], the activity change, negative = cytotoxic was -22.6% (inactive).

As for `CNc1ccccc1C(C)(C)c1cc(-c2cccc(OC)c2)no1`, the activity change, negative = cytotoxic in assay [1] is -41.9% (inactive).

With `Cc1cc2cc(CNC(=O)Nc3ccc(Cl)c(Cl)c3)ccc2n1C`, the activity change, negative = cytotoxic in assay [1] was -15.7% (inactive).

In the case of `Cc1ccc(S(=O)(=O)NCc2ccc3c(c2)cc(C)n3C)cc1`, the activity change, negative = cytotoxic in assay [1] is -7.83% (inactive).

For `CCc1ccc(-n2c(=S)sc3c(=O)n(-c4ccccc4C)c(SCC(=O)O)nc32)cc1`, the activity change, negative = cytotoxic in assay [1] is 12.6% (inactive).

With `Cc1cc2ccccc2n1CCNC(=O)COc1ccc2ccccc2c1`, in assay [1], the activity change, negative = cytotoxic was -12.6% (inactive).

Regarding `OCc1ccc(-c2nn(Cc3ccccc3)c3ccccc23)o1`, the activity change, negative = cytotoxic in assay [1] was 4.83% (inactive).

Consider `COc1cc(CC2C(=O)Nc3ccccc32)cc(C)c1O` (centres undefined), for which the activity change, negative = cytotoxic in assay [1] was -16.6% (inactive).

Consider `COc1ccc(Nc2ccccc2N)cc1`, for which the activity change, negative = cytotoxic in assay [1] is -11.7% (inactive).

On to `CCc1cccc2c1NC1(CCCC1)CC2C` (centres undefined), for which, in assay [1], the activity change, negative = cytotoxic is -4.91% (inactive).

The AC50 is the midpoint of the concentration-response curve, whichever way the signal moves. As to `O=C(c1c(F)cccc1F)N(Cc1ccccc1)Cc1ccccc1`, the AC50 in assay [2] was 50 µM.

With `O=C(O)C1CCN(c2nc(-c3ccccc3)c3cc(Br)ccc3n2)CC1`, the activity change, negative = cytotoxic in assay [1] was 13.4% (inactive).

For the compound `Cc1ccc(CSc2nc3[nH]ncc3c(=O)[nH]2)cc1`, the activity change, negative = cytotoxic in assay [1] is -29.4% (inactive).
